Test results reported in patent US20260248879A1, “METHODS OF USING A GCG/GLP1 CO-AGONIST FOR THERAPY” (ELI LILLY AND COMPANY, priority 2022, published 2026).
Like-named read-outs stand apart in the source and are kept apart here.

How the values were obtained:
patients with T2DM [1] = test: Phase 1 multiple-ascending dose study in T2DM (Example 1): body weight, waist circumference, body composition; type: in vivo, human
Excerpt: This study is a Phase 1, single-site, patient- and investigator-blinded, placebo controlled, randomized, non-crossover, multiple-ascending dose study with titration in each cohort in patients with T2DM to investigate the safety, tolerability, PK, and PD of the GLP-1/glucagon co-agonist peptide of SEQ ID NO:1 (Compound 1) administered as multiple SC injections QW for 12 weeks in Cohort 1 and 16 weeks in Cohort 2.
The first dosing regimen (also referred to as Cohort 1) is 12 weeks in duration and requires dose increments of 1.5 mg starting from 1.5 mg: • 1.5 mg QW Compound 1 for 4 weeks; • 3.0 mg QW Compound 1 for 4 weeks; and • 4.5 mg QW Compound 1 for 4 weeks.
The second dosing regimen (also referred to as Cohort 2) is 16 weeks in duration and requires dose increments of 2 mg starting from 2 mg: • 2 mg QW Compound 1 for 3 weeks; • 4 mg QW Compound 1 for 3 weeks; • 6 mg QW Compound 1 for 3 weeks; • 8 mg QW Compound 1 for 3 weeks; and • 10 mg QW Compound 1 for 4 weeks.
In respect of each dosing regimen, Compound 1 is administered SC into the abdomen of the patient after an overnight fast for at least 8 hours.
In respect of Cohort 1, body weight is measured at baseline and Days 1, 8, 15, 22, 29, 36, 43, 50, 57, 64, 71 and 78.
Wherever possible, the same scale is used for all weight measurements throughout the study and the scale is not moved or recalibrated. Subjects are weighed in light clothing at approximately the same time in the morning before dosing (on Day 1 only) and after an overnight fast and evacuation of bowel and the bladder, if possible. During the treatment period, weight is measured twice on each scheduled occasion, with the subject stepping off the scale between measurements. The average of the two weight measurements is recorded in the source document.
In respect of Cohort 1, waist circumference is measured at baseline and Days 1, 8, 15, 22, 29, 36, 43, 50, 57, 64, 71 and 78.
Waist circumference is measured at the midpoint between the lower margin of the least palpable rib and the top of the iliac crest. The patient stands with feet close together, arms at the side and body weight evenly distributed, and should wear little clothing. The patient should be relaxed, and the measurements should be taken at the end of a normal expiration. During screening, baseline, the treatment period, and at follow-up, waist circumference will be measured twice on each scheduled occasion. The average of the two measurements will be recorded in the source document.

patients with T2DM [2] = test: Example 1 study: appetite analysis (VAS); type: in vivo, human
Excerpt: To explore the effects of Compound 1 on meal intake and appetite sensation, subjects are asked to rate their appetite sensations using a 100-mm visual analogue scale
(VAS) for parameters of hunger, fullness, satiety, and prospective food consumption in the fasted state while inpatient as well as on scheduled outpatient visits. The VAS is a validated tool to assess appetite sensation parameters (Flint et al., Int J Obes Relat Metab Disord., 2000; 24(1):38-48). The VAS is presented as a 10-cm (100-mm) line, anchored by verbal descriptors, usually “extremely” and “not at all.” Subjects are required to rate their subjective sensations on four 100-mm scales combined with questions similar to the following: • “How hungry do you feel?” • “How satisfied do you feel?” • “How full do you feel?” • “How much do you think you could eat?”
Overall appetite score is calculated as the average of the 4 individual scores: satiety plus fullness plus (100−prospective food consumption) plus (100−hunger)/4 (van Can et al., Int J Obes (Lond). 2014; 38(6):784-793). The higher overall appetite score indicates less appetite, and the lower score indicates more appetite.
In respect of […], the satiety VAS (after fasting) is completed at baseline and Days 1, 29, 57, 78 and 80.
In respect of […], the satiety VAS (after fasting) is completed at baseline and Days 1, 22, 43, 64, 85, 106 and 108.
When the satiety VAS assessment coincides with the MMTT, it is performed pre-meal and 1 hour and 4 hours post MMTT.

[3] = human, in vivo
Excerpt: Up to two samples may be collected at additional time points during the study if warranted and agreed upon between both the investigator and sponsor.
All available PK data is utilized for model development.

[4] = Cohort 1 (1.5-4.5 mg QW), D78-80, baseline 59.0
[5] = Cohort 1, escalated to 4.5 mg, Day 78
[6] = Cohort 2 (2-10 mg QW), D106-108, baseline 60.1
[7] = Cohort 2, Day 134 (after end of dosing)
[8] = Cohort 2, Day 162 (after end of dosing)
[9] = Cohort 2, escalated to 4.0 mg, Day 43
[10] = Cohort 2, escalated to 6.0 mg, Day 64
[11] = Cohort 2, escalated to 8.0 mg, Day 85
[12] = Cohort 2, escalated to 10 mg, Day 109
[13] = both treatment groups, over dosing periods

For `CC(C)C[C@H](NC(=O)[C@H](CC(C)C)NC(=O)[C@H](Cc1c[nH]c2ccccc12)NC(=O)[C@H](CCC(=O)O)NC(=O)[C@@H](NC(=O)[C@H](Cc1ccccc1)NC(=O)[C@H](CCC(=O)O)NC(=O)[C@H](CCCCNC(=O)COCCOCCNC(=O)COCCOCCNC(=O)CC[C@H](NC(=O)CCCCCCCCCCCCCCCCCCC(=O)O)C(=O)O)NC(=O)[C@H](C)NC(=O)[C@H](CCCCN)NC(=O)[C@H](CCCCN)NC(=O)[C@H](CCC(=O)O)NC(=O)[C@H](CC(=O)O)NC(=O)[C@H](CC(C)C)NC(=O)[C@H](Cc1ccc(O)cc1)NC(=O)[C@H](CCCCN)NC(=O)[C@H](CO)NC(=O)[C@H](Cc1ccc(O)cc1)NC(=O)[C@H](CC(=O)O)NC(=O)[C@H](CO)NC(=O)[C@@H](NC(=O)[C@H](Cc1ccccc1)NC(=O)[C@@H](NC(=O)CNC(=O)[C@H](CCC(N)=O)NC(=O)C(C)(C)NC(=O)[C@@H](N)Cc1c[nH]cn1)[C@@H](C)O)[C@@H](C)O)C(C)C)C(=O)N[C@@H](CCC(=O)O)C(=O)NCC(=O)NCC(=O)N1CCC[C@H]1C(=O)N[C@@H](CO)C(=O)N[C@@H](CO)C(=O)NCC(N)=O` [Compound 1], the “Lean body Mass” value (patients with T2DM [1]; [4]) was 59.4 kg, the Lean body mass (patients with T2DM [1]; [4]) was 59.4 kg and the “% Lean body mass” value (patients with T2DM [1]; Cohort 1 (1.5-4.5 mg QW), D78-80, baseline 60.9%) was 64.3%. For the same compound, the Waist circumference (patients with T2DM [1]; Cohort 1 (1.5-4.5 mg QW), D78-80, baseline 110.4) was 105.7 cm, the “mean change from baseline in body weight” value (patients with T2DM [1]; Cohort 1 (1.5-4.5 mg QW), Day 78) was −2.88 kg at Day 78 and the “body weight, mean percent change from baseline” value (“body weight, mean percent change” below) (patients with T2DM [1]; [5]) was −3.03%. The “waist circumference, approximate reduction from baseline” value (patients with T2DM [1]; [5]) was roughly 3%, the mean body weight (patients with T2DM [1]; Cohort 1, escalated to 4.5 mg, Day 78, baseline 97.19) was 94.0 kg and the mean waist circumference (patients with T2DM [1]; Cohort 1, escalated to 4.5 mg, Day 78, baseline 108.66) was 105.66 cm. For the same compound, the “Lean body Mass” value (patients with T2DM [1]; [6]) was 56.4 kg, the Lean body mass (patients with T2DM [1]; [6]) was 56.4 kg and the “% Lean body mass” value (patients with T2DM [1]; Cohort 2 (2-10 mg QW), D106-108, baseline 63.0%) was 67.8%. For the same compound, the Waist circumference (patients with T2DM [1]; Cohort 2 (2-10 mg QW), D106-108, baseline 108.6) was 96.7 cm, the “body weight decrease from baseline compared to placebo” value (patients with T2DM [1]; Cohort 2 (2-10 mg QW), Day 50 through Day 162) was “statistically significant decreases” and the “mean change from baseline in body weight” value (patients with T2DM [1]; Cohort 2 (2-10 mg QW), Day 109) was −10.73 kg at Day 109. The mean body weight (patients with T2DM [1]; Cohort 2, Day 134 (after end of 16 weeks dosing), baseline 94.9) was 84.05 kg, the “body weight, mean percent change” value (patients with T2DM [1]; [7]) was −11.14% and the “waist circumference, approximate reduction from baseline” value (patients with T2DM [1]; [7]) was roughly 9%. For the same compound, the mean waist circumference (patients with T2DM [1]; Cohort 2, Day 134 (after end of dosing), baseline 106.93) was 97.59 cm, the “body weight, mean percent change” value (patients with T2DM [1]; [8]) was −6.56% and the “waist circumference, approximate reduction from baseline” value (patients with T2DM [1]; [8]) was roughly 4%. The mean body weight (patients with T2DM [1]; Cohort 2, Day 162 (after end of dosing), baseline 94.9) was 88.96 kg, the mean waist circumference (patients with T2DM [1]; Cohort 2, Day 162 (after end of dosing), baseline 106.93) was 102.79 cm and the “body weight, mean percent change” value (patients with T2DM [1]; [9]) was −4.04%. The “waist circumference, approximate reduction from baseline” value (patients with T2DM [1]; [9]) was roughly 3%, the mean body weight (patients with T2DM [1]; Cohort 2, escalated to 4.0 mg, Day 43, baseline 94.9) was 90.38 kg and the mean waist circumference (patients with T2DM [1]; Cohort 2, escalated to 4.0 mg, Day 43, baseline 106.93) was 103.38 cm. The “body weight, mean percent change” value (patients with T2DM [1]; [10]) was −7.07%, the “waist circumference, approximate reduction from baseline” value (patients with T2DM [1]; [10]) was roughly 5% and the mean body weight (patients with T2DM [1]; Cohort 2, escalated to 6.0 mg, Day 64, baseline 94.9) was 87.69 kg. The mean waist circumference (patients with T2DM [1]; Cohort 2, escalated to 6.0 mg, Day 64, baseline 106.93) was 101.31 cm, the “body weight, mean percent change” value (patients with T2DM [1]; [11]) was −9.05% and the “waist circumference, approximate reduction from baseline” value (patients with T2DM [1]; [11]) was roughly 8%. The mean body weight (patients with T2DM [1]; Cohort 2, escalated to 8.0 mg, Day 85, baseline 94.9) was 85.88 kg, the mean waist circumference (patients with T2DM [1]; Cohort 2, escalated to 8.0 mg, Day 85, baseline 106.93) was 98.58 cm and the “body weight, mean percent change” value (patients with T2DM [1]; [12]) was −12.71%. For the same compound, the “waist circumference, approximate reduction from baseline” value (patients with T2DM [1]; [12]) was roughly 10%, the mean body weight (patients with T2DM [1]; Cohort 2, escalated to 10 mg, Day 109, baseline 94.9) was 82.55 kg and the mean waist circumference (patients with T2DM [1]; Cohort 2, escalated to 10 mg, Day 109, baseline 106.93) was 96.56 cm. The body weight reduction (patients with T2DM [1]; dose 10 mg or greater) was “greater than 12%”, the body weight reduction (patients with T2DM [1]; dose greater than 6 mg) was “greater than 9%” and the “reduction in waist circumference” value (patients with T2DM [1]; dose greater than 6.0 mg) was “greater than 5%”. The overall appetite scores (patients with T2DM [2]; all treatment groups incl. placebo, 12-week or 16-week dosing, higher score = less appetite) was “generally increase from baseline”, the hunger scores (patients with T2DM [2]; both treatment groups, majority of time points) was “decrease from baseline” and the fullness scores (patients with T2DM [2]; [13]) was “increased from baseline”. The satiety scores (patients with T2DM [2]; [13]) was “decrease from baseline”, the VAS appetite assessments (patients with T2DM [2]; higher dose cohort (FIG. 8)) was “reduced hunger, increased satiety, decreased overall appetite” and the “t1/2, geomean (range)” value ([3]; 4.5 mg) was 209 (117 to 362) h. For the same compound, the “t1/2, geomean (range)” value ([3]; 10 mg) was 213 (129 to 366) h and the “Apparent clearance, CL/F, population mean estimate” value ([3]; sc) was 0.0311 L/h.
